In publication PMC10222454, “Characterization of the Molecular Diversity and Degranulation Activity of Mastoparan Family Peptides from Wasp Venoms” (Toxins, 2023):
Like-named read-outs stand apart in the source and are kept apart here. Ends that are not written are not given here.

Tests used:
[1] = test system: RBL-2H3 cells; format: cell-based, rat; conditions: for degranulation activity of mutant compared with Protopolybia-MPIII, in words: mutants of Protopolybia-MPIII, Table 3; for Degranulation at 80 μg/mL, RBL-2H3 / degranulation of RBL-2H3 / mast cells, in words: RBL-2H3 cells; for Degranulation at 80 μg/mL, RBL-2H3: 80 μg/mL peptide, 15 min at 37 °C, % of total β-hexosaminidase (0.1% Triton X-100 lysis)
Procedure: (§1) RBL-2H3 cells (rat mucosal-type mast cell line) and P815 cells (mouse mast cell tumor cell line) were obtained from the BeNa Culture Collection (Xinyang, China). RBL-2H3 cells were cultured in DMEM (Gibco, Wuhan, China) supplemented with 15% FBS (Gibco), and P815 cells were maintained in RPMI 1640 basic medium supplemented with 10% FBS and antibiotics (100 mg/L streptomycin and 1 × 10^5 U/L penicillin) in a humidified atmosphere (5% CO2, 37 °C).
(§2) Degranulation was analyzed by measuring the release of the granule marker N-acetyl-D-glucosaminidase (β-hexosaminidase), which colocalizes with histamine, as described in [24]. For this, 2 × 10^5 P815 cells/mL or 1.5 × 10^5 RBL-2H3 cells/mL were seeded in 96-well cell culture plates. Twelve hours later, the cells were incubated with various concentrations of mastoparans dissolved in 100 μL HEPES buffer (137 mM NaCl, 2.7 mM KCl, 1 mM MgCl2, 1.8 mM CaCl2, 20 mM HEPES, 1 mg/mL BSA, and 1 mg/mL glucose, pH 7.4) for 15 min at 37 °C and 5% CO2. Then, the reactions were quenched by the addition of 0.15 mL of ice-cold HEPES buffer. After centrifugation, the supernatants were sampled for the β-hexosaminidase assay. Briefly, 50 μL samples of the cell culture supernatants and 50 μL of the substrate, 5 mM p-nitrophenyl-N-acetyl-b-D-glucosaminide (Sigma) in 0.2 M citrate, pH 4.5, were incubated in 96-well plates at 37 °C and 5% CO2 for 16–18 h to yield the chromophore p-nitrophenol, and the reactions were stopped by the addition of 100 μL of 0.2 M glycine solution, pH 10.7. The absorbance of the colored product was assessed at 405 nm using a microtiter plate reader. The values for β-hexosaminidase released in the medium are expressed as the percentage of total β-hexosaminidase, which was measured in the cells after lysis in 0.1% Triton X-100. The experiment was repeated three times, and the results represent the mean and standard deviation (SD) of quadruplicate tests. The percent degranulation was calculated according to the following equation:Degranulation Rate (%) = 100% × (Amastoparans − AHEPES)/(ATriton X-100 − AHEPES).
Statistical analysis was performed with GraphPad Prism software. The curve of mast cell degranulation induced by wasp mastoparans was generated in SigmaPlot 12.5 software, and the EC50 was calculated according to the following equation (Four-Parameter Logistic Curve): y = min + (max − min)/(1 + (x/EC50) […] Hillslope).

[2] = test system: P815 cells; assay: Mast cell degranulation activity (β-hexosaminidase release) in P815 cells; format: cell-based, mouse; conditions: P815 cells, 80 μg/mL peptide, 15 min at 37 °C, % of total β-hexosaminidase (0.1% Triton X-100 lysis)
Procedure: as §1, §2

Row | Substance | EC50 ([1]; pH 7.4) [µM] | EC50 [1] [µM] | further results
1 | INWKKIKSIIKAAMN-NH2 [MP-V1] | 130 ± 46.6 |  | 
2 | INWKKIKSLIKAAMS-NH2 [MP-V2] | 88.9 ± 61.3 |  | 
3 | INWKKMAATALKMI-NH2 [Parapolybia-MP] | 89.4 ± 19.9 |  | 
4 | INWLKLGKAIIDAL-NH2 [Agelaia-MPI] | 5.25 ± 0.87 |  | 
5 | INWLKLGKAVIAAL-NH2 [Protopolybia-MP III-3] |  | 15.3 ± 3.53 | 
6 | INWLKLGKAVIAIL-NH2 [Protopolybia-MP III-10] |  | 8.39 ± 0.93 | 
7 | INWLKLGKAVIDAL-NH2 [Protopolybia-MPIII] | 22.5 ± 2.96 | 21.7 ± 3.44 | 
8 | INWLKLGKAVIDIL-NH2 [Protopolybia-MP III-4] |  | 28.1 ± 3.71 | 
9 | INWLKLGKAVSAAL-NH2 [Protopolybia-MP III-8] |  | 140 ± 7.06 | 
10 | INWLKLGKAVSAIL-NH2 [Protopolybia-MP III-11] |  | > 325 | degranulation activity of mutant compared with Protopolybia-MPIII, in words [1]: significantly decreased
11 | INWLKLGKAVSDAL-NH2 [Protopolybia-MP III-2] |  | 193 ± 28.8 | 
12 | INWLKLGKAVSDIL-NH2 [Protopolybia-MP III-9] |  | 49.6 ± 1.73 | 
13 | INWLKLGKKILGAI-NH2 [Pm-R1] | 22.9 ± 4.77 |  | 
14 | INWLKLGKKILGAL-NH2 [PDD-B] | 21.7 ± 3.78 |  | 
15 | INWLKLGKKMMSAL-NH2 [MP] | 66.8 ± 30.7 |  | 
16 | INWLKLGKKVIAAL-NH2 [Protopolybia-MP III-6] |  | 69.1 ± 12.3 | 
17 | INWLKLGKKVIAIL-NH2 [Protopolybia-MP III-12] |  | 47.7 ± 14.1 | 

Row | Substance | EC50 ([1]; pH 7.4) [µM] | EC50 [1] [µM] | further results
18 | INWLKLGKKVIDAL-NH2 [Protopolybia-MP III-1] |  | 98.4 ± 8.43 | 
19 | INWLKLGKKVIDIL-NH2 [Protopolybia-MP III-7] |  | 25.2 ± 1.56 | 
20 | INWLKLGKKVSAAL-NH2 [Protopolybia-MP III-14] |  | > 325 | EC50 (μg/mL), Protopolybia-MPIII and mutations [1]: >500 µg/mL; degranulation activity of mutant compared with Protopolybia-MPIII, in words [1]: almost lost
21 | INWLKLGKKVSAIL-NH2 [Protopolybia-MPI] | 117 ± 38.3 |  | 
22 | INWLKLGKKVSDAL-NH2 [Protopolybia-MP III-5] |  | > 325 | EC50 (μg/mL), Protopolybia-MPIII and mutations [1]: >500 µg/mL; degranulation activity of mutant compared with Protopolybia-MPIII, in words [1]: almost lost
23 | INWLKLGKKVSDIL-NH2 [Protopolybia-MP III-13] |  | 145 ± 24.4 | 
24 | INWLKLGKMVIDAL-NH2 [Polybia-MPII] | 6.79 ± 0.4 |  | 
25 | INWLKLGKQILGAL-NH2 [Pm-R3] | 7.6 ± 0.76 |  | 
26 | KDLHTVVSAILQAL-NH2 [OdVP3] | > 200 |  | Degranulation at 80 μg/mL, RBL-2H3 [1]: 5%; EC50 (μg/mL), RBL-2H3 ([1]; pH 7.4): >300 µg/mL; Degranulation at 80 μg/mL, P815 [2]: <20%
27 | LKLLGIVKKVLGAI-NH2 [EMP-EM2] | 72.8 ± 19.8 |  | 
28 | LKLMGIVKKVLGAL-NH2 [MP-EM1] | 197 ± 164 |  | 
29 | LNFKALAALAKKIL-NH2 [Pm-R2] | 94.8 ± 73.5 |  | 
30 | LNLKGIFKKVASLLT-OH [Eumenitin] |  |  | degranulation of RBL-2H3 / mast cells, in words [1]: hardly induced mast cell degranulation; Degranulation at 80 μg/mL, RBL-2H3 [1]: 8%; EC50 (μg/mL), RBL-2H3 ([1]; pH 7.4): >300 µg/mL; Degranulation at 80 μg/mL, P815 [2]: <20%
31 | LNLKGLFKKVASLLT-OH [Eumenitin-F] |  |  | degranulation of RBL-2H3 / mast cells, in words [1]: hardly induced mast cell degranulation; Degranulation at 80 μg/mL, RBL-2H3 [1]: 2%; EC50 (μg/mL), RBL-2H3 ([1]; pH 7.4): >300 µg/mL; Degranulation at 80 μg/mL, P815 [2]: <20%
32 | LNLKGLIKKVASLLN-OH [Eumenitin-R] |  |  | degranulation of RBL-2H3 / mast cells, in words [1]: hardly induced mast cell degranulation; Degranulation at 80 μg/mL, RBL-2H3 [1]: 14%; EC50 (μg/mL), RBL-2H3 ([1]; pH 7.4): >300 µg/mL; Degranulation at 80 μg/mL, P815 [2]: <20%
33 | VDWKKIGQHILSVL-NH2 [Mastoparan-J] | 37.3 ± 5.13 |  | 
